Converted amounts (≈) assume the structure as drawn. Where two headings read alike, the source gives them in different places.
Key:
[1] = tested on: Aβ production in neuroblastoma SH-SY5Y cells (SH/APPwt); assay: β-amyloid (Aβ) production inhibitory effect in cell: 384-well; assay type: cell-based; details: Homo sapiens, Assay format 384-well
Protocol: Neuroblastoma SH-SY5Y cells (SH/APPwt) with human wild-type β-APT excessively expressed therein were prepared at 4×10^5 cells/mL, and 50 μl portions thereof were inoculated into each well of a 384-well culture plate (Corning) added 0.5 μl of the test compound of the present invention (DMSO solution). The final DMSO concentration was 1%, and the amount of the cell culture was 50 μl. After the incubation was performed for 21 hours from the cell seeding, 5 μl of the culture supernatant was collected from each fraction. The amount of the Aβ in each fraction was measured.
The Aβ amount was measured as follows. 5 μl of a homogeneous time resolved fluoresrenee (HTRF) measurement reagent (Amyloid β1-40 peptide; CIS bio international) and 5 μl of the culture supernatant were put into a 384′well plate (a black plate: Corning) and mixed with each other, and then left standing overnight at 4° C. while the light was shielded. Then, the fluorescence intensity (620 nm and 665 nm) was measured with EnViston (Perkin Elmer life sciences).

[2] = target: T1, P-gp (MDR1 expressing LLC-PK1 cells) (Homo sapiens, UniProt P08183); assay: P-gp substrate test; assay type: in vitro ADME; details: net flux = Efflux Ratio in MDR1 expressing cells / Efflux Ratio in parent LLC-PK1 cells
T1 construct: host or cells: LLC-PK1
Protocol: • 1. Cell line: • a. MDR/LLC-PK1 (Becton Dickinson) • b. LLC-PK1 (Becton Dickinson) • 2. Reference substrates: • a Digoxin (2 μM)
1. […] After incubation for designed time at 37° C., an aliquot (50 μL) of transport buffer in the donor and receiver side were collected. Assay was performed by duplicate or triplicate. 3. Reference substrate and the present invention in the aliquot was quantified by LC/MS/MS.
Pc(cm/sec)−Permeated amount (pmol)/area of cell membrane (cm2)/initial concentration (nM)/incubation time (sec)
The efflux ratio was calculated using the following equation:
Efflux Ratio=Basolateral-to-Apical Pe/Apical-to-Basolateral Pe
The net flux was calculated using the following equation
Net flux=Efflux Ratio in MDK1 expressing cells/Efflux Ratio in parent cells

Recombinant human BACE1 = target: T2, Recombinant human BACE1 (Homo sapiens, UniProt P56817); assay: Assay of BACE1 inhibitory activity: 384-well; assay type: biochemical; details: Assay format 384-well
T2 construct: purchased R&D Systems
Protocol: 5 μL of substrate peptide solution (Biotin-XSEVNLDAEFRHDSGC-Eu: X=ε-amino-n-capronic acid, Eu=Europium eryplate) was added to each well of 384-well plate (a black plate: Corning), and after addition of 0.1 μl of the compound of the present invention (DMSO solution) and 5 μl of Recombinant human BACE1 (R&D Systems), the reaction mixture was incubated at 25° C. for 2 hours. The substrate peptide was synthesized by reacting Cryptate TBPCOOH mono SMP (CIS bio international) with Biotin-XSEVNLDAEFRHDSGC (Peptide Institute, Inc.).
After the incubation for reaction, 10 μl of 8.0 μg/ml Streptavidin-XL665 (CIS bio International) dissolved in phosphate buffer (150 mmol/L K2HPO4-KH2PO4, pH 7.0, 0.008% Triton X-100, 0.8 mol/L KF) was added to each well and left stand at 25° C. for 30 minutes.

Solubility test = assay type: physicochemical; details: for solubility kinetic at 1 h: kinetic from dmso stock; for solubility kinetic at 16 h: solubility in JP 2nd fluid B, 1% DMSO, *2: shaken for 1 hour at room temperature
Protocol: A 10 mmol/L solution of the compound was prepared with DMSO, and 2 μL of the compound of the present invention solution was added, respectively, to 198 μL of JP 1st fluid (water was added to 2.0 g of sodium chloride and 7.0 ml, of hydrochloric acid to reach 1000 mL) and JP 2nd fluid (See Table 4). The mixture was left standing for 16 hours at 25° C. or shaken for 1 hour at ruom temperature, and the mixture was vacuum-filtered. The […] was ten or one hundred-fold diluted with metbanol/water=1/1 (v/v) or MeCN/MeOH/H2O(=1/1/2), and the compound concent ration in the filtrate was measured with LC/MS or solid phase extraction (SPE)/MS by the absolute calibration method.

Metabolic stability test = assay type: in vitro ADME; details: human liver microsomes, 37° C., 30 minutes, NADPH
Protocol: Using a commercially available pooled human liver microsomes, a compound of the present invention was reacted for a constant time, a remaining rate was calculated by comparing a reacted sample and an unreacted sample, thereby, a degree of metabolism in liver was assessed.
A reaction was performed (oxidative reaction) at 37° C. for 0 minute or 30 minutes in the presence of 1 mmol/L NADPH in 0.2 mL of a buffer (60 mmol/L Tris-HCl pH 7.4, 150 mmol/L potassium chloride, 10 mmol/L magnesium chloride) containing 0.5 mg protein/mL of human liver microsomes. After the reaction, 50 μL of the reaction solution was added to 100 μL of a methanol/acetonltrile=1/1 (v/v), mixed and centrifuged at 3000 rpm for 15 minutes. The compound of the present invention in the supernatant was quantified by LC/MS/MS or solid phase extraction (SPE)/MS, and a remaining amount of the compound of the present invention after the reaction area calculated, letting a compound amount at 0 minute reaction time to be 100%.

[3] = target: T3, human ether-a-go-go related gene (hERG) channel (Homo sapiens, UniProt Q12809); assay: hERG test; assay type: cell-based; details: % inhibition of IKr tail peak current at 3 uM; CHO cells expressing hERG
T3 construct: expressed in transfected cells; host or cells: CHO cells
Text: For the purpose of assessing risk of an electrocardiogram QT interval prolongation, effects on delayed rectifier K+ current (IKr), which plays an important role in the ventricular repolarization process of the compound of the present invention, was studied using CHO cells expressing human ether-a-go-go related gene (hERG) channel.
A cell was retained at a membrane potential of […] by whole cell patch clamp method using an automated patch clamp system (QPatch:Sophion Bioscience A/S). After application of leak potential at −50 mV, IKr induced by depolarization pulse stimulation at +20 mV for 2 seconds and, further, repolarization pulse stimulation at −50 mV for 2 seconds was recorded.

CYP3A4 = target: T4, CYP3A4 (Homo sapiens, UniProt P08684); assay: CYP inhibition test (CYP3A4); assay type: in vitro ADME; details: pooled human liver microsomes; terfenadine hydroxylation
T4 construct: The commercially available pooled human liver microsomes are used as an enzyme resource; from tissue; host or cells: pooled human liver microsomes
Text: (§1) The CYP inhibition test is a test to assess the inhibitory effect of a compound of the present invention towards typical substrate metabolism reactions on CYP enzymes in human liver microsomes. The marker reactions on human main five CYP enzymes (CYP1A2, 2C9, 2C19, 2D6, and 3A4) are used as follows: 7-ethoxyresorufin O-deethylation (CYP1A2), tolbutamide methyl-hydroxylation (CYP2C9), mephenytoin 4′-hydroxylation (CYP2C19), dextromethorphan O-demethylation (CYP2D6), and terfenadine hydroxylation (CYP3A4). The commercially available pooled human liver microsomes are used as an enzyme resource.
(§2) The reaction conditions were as follows: substrate, 0.5 μmol/L ethoxyresorufin (CYP1A2), 100 μmol/L tolbutamide (CYP2C9), 50 μmol/L, S-mephenytoin (CYP2C19), 5 μmol/L dextromethorphan (CYP2D6), 1 μmol/L terfenadine (CYP3A4): reaction time, 15 minutes: reaction temperature, 37° C.; enzyme, pooled human liver microsomes 0.2 mg protein/mL; concentrations of the compound of the present invention, 1, 5, 10, 20 μmol/L (four points).
(§3) Five kinds of substrates, human liver microsomes, and a compound solution of the present invention in […] Hepes buffer were added to a 96-well plate at the composition as described above as a reaction solution. NADPH as a cofactor was added to this 96-well plate in order to initiate metabolism reactions. After the incubation at 37° C.for […], a methanol/acetonitrile=1/1 (v/v) solution was added to stop the reaction. After the centrifugation at 3000 rpm for 15 minutes, resorufin (CYP1A2 metabolite) in the supernatant was quantified by a fluorescent plate reader, and hydroxytolbutamide (CYP2C9 metabolite), 4′-hydroxymephenytoin (CYP2C19 metabolite), dextrorphan (CYP2D6 metabolite), and terfenadine alcohol metabolite (CYP3A4 metabolite) in the supernatant were quantified by LC/MS/MS.
(§4) The sample adding DMSO to a reaction system instead of compound of the present invention solution was adopted as a control (100%) because DMSO was used as a solvent to dissolve a compound of the present invention. Remaining activity (%) was calculated at each concentration of a compound of the present invention, and IC50 value was calculated by reverse presumption by a logistic model using a concentration and an inhibition rate.

CYP2C9 = target: T5, CYP2C9 (Homo sapiens, UniProt P11712); assay: CYP inhibition test (CYP2C9); assay type: in vitro ADME; details: pooled human liver microsomes; tolbutamide methyl-hydroxylation
T5 construct: The commercially available pooled human liver microsomes are used as an enzyme resource; from tissue; host or cells: pooled human liver microsomes
Text: as §1, §2, §3, §4

CYP2C19 = target: T6, CYP2C19 (Homo sapiens, UniProt P33261); assay: CYP inhibition test (CYP2C19); assay type: in vitro ADME; details: pooled human liver microsomes; mephenytoin 4′-hydroxylation
T6 construct: The commercially available pooled human liver microsomes are used as an enzyme resource; from tissue; host or cells: pooled human liver microsomes
Text: as §1, §2, §3, §4

CYP1A2 = target: T7, CYP1A2 (Homo sapiens, UniProt P05177); assay: CYP inhibition test (CYP1A2); assay type: in vitro ADME; details: pooled human liver microsomes; 7-ethoxyresorufin O-deethylation
T7 construct: The commercially available pooled human liver microsomes are used as an enzyme resource; from tissue; host or cells: pooled human liver microsomes
T7 sequence (P05177 1-516): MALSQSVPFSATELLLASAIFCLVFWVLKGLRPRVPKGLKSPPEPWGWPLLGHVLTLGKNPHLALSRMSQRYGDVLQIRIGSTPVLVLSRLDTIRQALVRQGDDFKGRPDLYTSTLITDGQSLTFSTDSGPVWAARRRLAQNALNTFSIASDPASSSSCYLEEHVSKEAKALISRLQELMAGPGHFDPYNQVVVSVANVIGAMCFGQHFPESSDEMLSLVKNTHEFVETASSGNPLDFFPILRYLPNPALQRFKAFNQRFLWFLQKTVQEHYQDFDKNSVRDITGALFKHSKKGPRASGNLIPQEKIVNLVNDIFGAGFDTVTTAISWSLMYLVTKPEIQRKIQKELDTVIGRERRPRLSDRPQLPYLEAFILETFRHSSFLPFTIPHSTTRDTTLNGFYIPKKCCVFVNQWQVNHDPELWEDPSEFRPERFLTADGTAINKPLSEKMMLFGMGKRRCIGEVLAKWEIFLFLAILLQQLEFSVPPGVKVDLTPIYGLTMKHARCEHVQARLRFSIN
Text: as §1, §2, §3, §4

CYP2D6 = target: T8, CYP2D6 (Homo sapiens, UniProt P10635); assay: CYP inhibition test (CYP2D6); assay type: in vitro ADME; details: pooled human liver microsomes; dextromethorphan O-demethylation
T8 construct: The commercially available pooled human liver microsomes are used as an enzyme resource; from tissue; host or cells: pooled human liver microsomes
Text: as §1, §2, §3, §4

[4] = JP 1st fluid, pH 1.2, simulated gastric fluid, read-out: JP1

T5 sequence (P11712 whole entry): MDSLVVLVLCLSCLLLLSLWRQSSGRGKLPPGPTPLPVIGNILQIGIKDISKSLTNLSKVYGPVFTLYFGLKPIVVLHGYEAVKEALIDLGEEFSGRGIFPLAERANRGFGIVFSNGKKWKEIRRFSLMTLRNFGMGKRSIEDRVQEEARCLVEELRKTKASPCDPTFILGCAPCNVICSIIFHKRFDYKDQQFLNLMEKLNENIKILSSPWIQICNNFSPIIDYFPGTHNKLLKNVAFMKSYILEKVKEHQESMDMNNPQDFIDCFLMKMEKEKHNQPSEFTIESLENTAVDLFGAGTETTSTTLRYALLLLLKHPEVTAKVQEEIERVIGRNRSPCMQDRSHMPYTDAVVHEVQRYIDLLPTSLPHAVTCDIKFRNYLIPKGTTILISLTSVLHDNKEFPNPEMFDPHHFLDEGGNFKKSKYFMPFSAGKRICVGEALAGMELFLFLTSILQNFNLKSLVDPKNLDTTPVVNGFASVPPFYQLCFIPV
T8 sequence (P10635 whole entry): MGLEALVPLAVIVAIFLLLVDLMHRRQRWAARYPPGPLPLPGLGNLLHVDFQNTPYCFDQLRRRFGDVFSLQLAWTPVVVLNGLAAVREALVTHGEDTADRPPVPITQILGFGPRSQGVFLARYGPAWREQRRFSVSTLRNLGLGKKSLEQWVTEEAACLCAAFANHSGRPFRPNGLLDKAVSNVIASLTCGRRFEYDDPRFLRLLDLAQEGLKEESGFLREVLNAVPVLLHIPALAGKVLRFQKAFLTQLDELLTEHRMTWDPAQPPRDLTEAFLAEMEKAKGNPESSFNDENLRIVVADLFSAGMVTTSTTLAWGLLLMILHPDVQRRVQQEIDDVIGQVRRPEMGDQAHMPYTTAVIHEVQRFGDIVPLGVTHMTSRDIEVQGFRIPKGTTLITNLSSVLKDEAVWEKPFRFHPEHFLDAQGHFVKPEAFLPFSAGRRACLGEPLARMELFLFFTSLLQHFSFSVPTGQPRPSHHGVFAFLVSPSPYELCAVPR
T6 sequence (P33261 whole entry): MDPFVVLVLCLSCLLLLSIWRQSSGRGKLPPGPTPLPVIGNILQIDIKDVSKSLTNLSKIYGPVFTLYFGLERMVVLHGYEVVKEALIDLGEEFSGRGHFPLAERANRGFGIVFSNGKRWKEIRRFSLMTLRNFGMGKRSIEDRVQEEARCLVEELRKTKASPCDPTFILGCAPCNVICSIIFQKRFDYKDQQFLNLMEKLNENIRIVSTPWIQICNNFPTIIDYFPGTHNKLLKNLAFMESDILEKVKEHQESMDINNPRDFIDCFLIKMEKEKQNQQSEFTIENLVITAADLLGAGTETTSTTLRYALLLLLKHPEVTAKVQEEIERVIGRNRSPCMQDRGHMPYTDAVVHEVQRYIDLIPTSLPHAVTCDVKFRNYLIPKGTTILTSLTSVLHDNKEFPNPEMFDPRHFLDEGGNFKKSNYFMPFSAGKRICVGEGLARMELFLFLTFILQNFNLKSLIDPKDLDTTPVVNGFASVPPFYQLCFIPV
T4 sequence (P08684 whole entry): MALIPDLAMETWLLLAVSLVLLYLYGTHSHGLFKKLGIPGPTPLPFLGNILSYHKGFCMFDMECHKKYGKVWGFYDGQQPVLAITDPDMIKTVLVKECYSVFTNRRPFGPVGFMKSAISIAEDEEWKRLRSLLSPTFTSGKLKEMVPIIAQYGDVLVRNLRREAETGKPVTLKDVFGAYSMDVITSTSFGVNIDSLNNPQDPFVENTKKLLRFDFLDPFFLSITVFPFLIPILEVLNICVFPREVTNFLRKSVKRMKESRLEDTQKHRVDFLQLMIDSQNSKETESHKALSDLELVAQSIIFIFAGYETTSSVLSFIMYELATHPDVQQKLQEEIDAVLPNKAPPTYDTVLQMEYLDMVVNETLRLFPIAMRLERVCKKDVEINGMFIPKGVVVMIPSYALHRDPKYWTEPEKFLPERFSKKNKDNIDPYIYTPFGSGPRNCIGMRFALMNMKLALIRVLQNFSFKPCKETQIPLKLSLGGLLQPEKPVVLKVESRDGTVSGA
T2 sequence (P56817 46-501): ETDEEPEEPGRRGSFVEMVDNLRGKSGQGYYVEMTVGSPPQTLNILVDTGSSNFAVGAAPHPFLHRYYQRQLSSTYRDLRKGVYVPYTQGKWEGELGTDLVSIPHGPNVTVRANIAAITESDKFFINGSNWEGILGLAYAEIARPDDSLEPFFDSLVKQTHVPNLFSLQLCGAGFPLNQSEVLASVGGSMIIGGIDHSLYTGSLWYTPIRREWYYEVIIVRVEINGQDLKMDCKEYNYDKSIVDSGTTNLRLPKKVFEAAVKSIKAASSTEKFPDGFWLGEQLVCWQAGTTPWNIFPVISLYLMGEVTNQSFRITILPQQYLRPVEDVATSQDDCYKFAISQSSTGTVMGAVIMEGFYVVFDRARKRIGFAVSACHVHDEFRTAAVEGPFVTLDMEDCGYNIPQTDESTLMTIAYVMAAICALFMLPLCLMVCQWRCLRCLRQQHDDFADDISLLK
T1 sequence (P08183 whole entry): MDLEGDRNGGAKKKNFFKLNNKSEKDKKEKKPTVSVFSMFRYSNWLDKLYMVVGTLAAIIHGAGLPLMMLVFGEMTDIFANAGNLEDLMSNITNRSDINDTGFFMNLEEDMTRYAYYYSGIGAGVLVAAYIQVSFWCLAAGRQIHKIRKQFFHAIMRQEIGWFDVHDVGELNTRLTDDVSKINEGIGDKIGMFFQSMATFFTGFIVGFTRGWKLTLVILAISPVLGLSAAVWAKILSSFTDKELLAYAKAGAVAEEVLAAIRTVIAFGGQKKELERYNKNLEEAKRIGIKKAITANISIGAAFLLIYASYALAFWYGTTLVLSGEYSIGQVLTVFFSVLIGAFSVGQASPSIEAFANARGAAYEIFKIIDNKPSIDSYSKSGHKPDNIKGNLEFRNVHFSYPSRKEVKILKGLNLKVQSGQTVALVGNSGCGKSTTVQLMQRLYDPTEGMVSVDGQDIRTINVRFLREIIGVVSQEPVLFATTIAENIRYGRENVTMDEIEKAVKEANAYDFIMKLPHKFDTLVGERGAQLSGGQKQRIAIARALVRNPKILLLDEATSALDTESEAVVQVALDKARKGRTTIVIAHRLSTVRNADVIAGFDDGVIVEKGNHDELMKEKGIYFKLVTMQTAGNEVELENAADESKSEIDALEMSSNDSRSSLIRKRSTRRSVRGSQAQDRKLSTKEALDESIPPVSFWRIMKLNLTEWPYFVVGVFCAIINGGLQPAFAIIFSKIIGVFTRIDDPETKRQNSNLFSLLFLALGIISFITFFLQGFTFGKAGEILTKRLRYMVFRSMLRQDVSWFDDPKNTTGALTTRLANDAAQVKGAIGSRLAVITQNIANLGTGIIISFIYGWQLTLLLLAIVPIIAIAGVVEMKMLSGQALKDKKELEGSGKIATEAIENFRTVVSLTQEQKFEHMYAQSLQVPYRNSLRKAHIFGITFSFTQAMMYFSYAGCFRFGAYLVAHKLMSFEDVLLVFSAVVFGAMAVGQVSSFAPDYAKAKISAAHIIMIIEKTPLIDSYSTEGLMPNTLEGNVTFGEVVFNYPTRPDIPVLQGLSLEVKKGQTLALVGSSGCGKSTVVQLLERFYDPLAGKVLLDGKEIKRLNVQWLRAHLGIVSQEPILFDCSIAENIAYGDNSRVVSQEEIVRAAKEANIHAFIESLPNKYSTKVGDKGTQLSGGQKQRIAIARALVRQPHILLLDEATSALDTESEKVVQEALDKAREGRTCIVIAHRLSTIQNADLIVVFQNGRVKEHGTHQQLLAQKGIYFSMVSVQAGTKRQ
T3 sequence (Q12809 whole entry): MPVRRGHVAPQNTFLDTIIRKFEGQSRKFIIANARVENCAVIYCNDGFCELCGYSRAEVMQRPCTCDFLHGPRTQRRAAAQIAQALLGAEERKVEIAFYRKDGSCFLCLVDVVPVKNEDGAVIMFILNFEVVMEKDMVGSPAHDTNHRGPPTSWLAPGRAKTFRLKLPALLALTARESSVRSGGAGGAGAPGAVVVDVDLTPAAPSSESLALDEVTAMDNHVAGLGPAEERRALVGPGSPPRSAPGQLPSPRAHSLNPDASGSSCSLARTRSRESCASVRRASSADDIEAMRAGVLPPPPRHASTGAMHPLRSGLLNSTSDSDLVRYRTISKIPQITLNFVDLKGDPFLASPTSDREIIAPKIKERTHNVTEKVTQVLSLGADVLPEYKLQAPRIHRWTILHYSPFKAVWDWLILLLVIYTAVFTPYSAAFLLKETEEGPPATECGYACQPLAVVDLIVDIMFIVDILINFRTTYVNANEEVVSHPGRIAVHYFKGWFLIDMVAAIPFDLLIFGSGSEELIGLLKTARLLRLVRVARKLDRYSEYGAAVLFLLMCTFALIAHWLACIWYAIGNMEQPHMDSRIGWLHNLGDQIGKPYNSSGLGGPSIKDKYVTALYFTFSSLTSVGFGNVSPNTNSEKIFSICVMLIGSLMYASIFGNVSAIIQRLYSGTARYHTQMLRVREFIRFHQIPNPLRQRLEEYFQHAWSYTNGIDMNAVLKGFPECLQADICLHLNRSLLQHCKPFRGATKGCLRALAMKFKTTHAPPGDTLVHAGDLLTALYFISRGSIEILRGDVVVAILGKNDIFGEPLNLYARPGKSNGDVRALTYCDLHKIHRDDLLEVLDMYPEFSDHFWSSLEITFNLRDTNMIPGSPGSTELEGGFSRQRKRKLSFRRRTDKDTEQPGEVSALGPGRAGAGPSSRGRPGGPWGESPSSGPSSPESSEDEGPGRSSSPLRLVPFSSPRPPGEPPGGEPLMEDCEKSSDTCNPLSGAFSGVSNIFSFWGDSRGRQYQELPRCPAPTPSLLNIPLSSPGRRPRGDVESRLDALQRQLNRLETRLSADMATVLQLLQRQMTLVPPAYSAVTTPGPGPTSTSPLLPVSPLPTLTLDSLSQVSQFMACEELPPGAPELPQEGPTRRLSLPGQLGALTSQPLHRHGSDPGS

Row | Compound | IC50 [1] [nM] | ER ratio (Cell: MDR1/LLC-PK1) [2] | IC50 (Recombinant human BACE1) [nM] | solubility kinetic at 1 h (Solubility test; [4]) [µM] | solubility kinetic at 1 h (Solubility test; JP 2nd fluid B, pH 6.8, aqueous buffer, read-out: JP2_μM) [µM] | remaining % (Metabolic stability test) [%] | hERG_3 uM_% [3] [%] | IC50 (CYP3A4) [nM] | IC50 (CYP2C9) [nM] | solubility kinetic at 16 h (Solubility test; read-out: JP2_μM) [µM] | IC50 (CYP2C19) [nM] | IC50 (CYP1A2) [nM] | IC50 (CYP2D6) [nM]
1 | C[C@H]1SC(N)=N[C@](C)(c2cc(NC(=O)c3ccc(OCC(F)(F)F)cn3)ccc2F)[C@H]1F [Compound I-54] | 7.2 | 1.9 | 13 | > 50 | 38.6 (≈ 18.3 µg/mL) | 91 | 37.7 |  |  |  |  |  | 
2 | COc1ccc(C(=O)Nc2ccc(F)c([C@@]3(C)N=C(N)SCC34CC(F)(F)C4)c2)nc1 [Compound I-57] | 0.68 | 0.6 | 16.1 | > 50 |  |  |  | ≥ 10000 | ≥ 20000 | >50 | ≥ 20000 | ≥ 20000 | 
3 | Cc1cc(C#N)cnc1C(=O)Nc1ccc(F)c([C@@]2(C)N=C(N)SCC23CC(F)(F)C3)c1 [Compound I-60] | 0.29 | 1.4 | 6.62 | > 50 |  |  |  |  | ≥ 20000 | >50 | ≥ 20000 | ≥ 20000 | 
4 | COCC(F)(F)[C@H]1OC(N)=N[C@](C)(c2cc(NC(=O)c3ccc(C#N)cn3)ccc2F)[C@H]1F [Compound I-78] | 6.7 |  | 7.35 | > 50 |  |  | 39.6 | ≥ 10000 | ≥ 20000 | >50 | ≥ 20000 | ≥ 20000 | ≥ 10000
5 | [2H]C([2H])([2H])Oc1cnc(C(=O)Nc2cccc([C@@]3(C)N=C(N)S[C@H](C)[C@@H]3F)c2)cn1 [Compound I-114] | 5.1 |  | 41.5 | > 50 |  | 80.5 |  | ≥ 20000 | ≥ 10000 | >50.0 | ≥ 20000 | ≥ 20000 | ≥ 20000
6 | C[C@H]1SC(N)=N[C@](C)(c2cccc(NC(=O)c3ccc(F)cn3)c2)[C@H]1F [Compound I-115] | 7.2 |  | 34.3 | > 50 |  | 78.9 |  | ≥ 20000 | ≥ 20000 | >50.0 | ≥ 20000 | ≥ 10000 | ≥ 20000

Reference: US20170073337A1, “DIHYDROTHIAZINE AND DIHYDROOXAZINE DERIVATIVES HAVING BACE1 INHIBITORY ACTIVITY” (Shionogi & Co., Ltd., priority 2014, published 2017)
